Bridge positions count the residues as written; N and C are the ends. Peptide text beside a SMILES is read from it.
Tests used:
[1] = target: T1, GST-hTEAD1 (Homo sapiens, UniProt P28347); assay: SPR binding to immobilised GST-hTEAD1; conditions: GST-hTEAD1 amine-coupled on CM5, multi-cycle, steady-state fit 1:1 model, 10 mM HEPES 150 mM NaCl 0.05% Tween-20 pH 7.4, 0.3% DMSO, 20 °C, Fig. 1 values n = 1 replicate
T1 construct: CDNA of hTEAD1(209–426) fused with an N-terminal GST tag; made in house; host or cells: Escherichia coli BL21 DE3 RIL(K+)
Method: (§1) Sensor chips Series S CM5 (Research grade) were obtained from GE Healthcare. Prior to use, the sensor chips were equilibrated at room temperature for 15 min to prevent water condensation on the detector side of the sensor chip surface. A running buffer was prepared composed of 10 mM HEPES, 150 mM NaCl, and 0.05% (w/v) Tween-20, pH 7.4, and the system was equilibrated at 20 °C using a flow rate of 30 µL min^−1 after docking of the sensor chip. Ligand binding experiments have been performed applying the concept of multi-cycle kinetics. A contact time of 45 s was selected, followed by a 6-min dissociation phase to allow for complete dissociation of the analyte prior to the next cycle. […] Typically, seven concentrations of the analytes have been examined applying a threefold dilution pattern with 30 µM as top concentration. For the analysis, five running buffer blanks were injected to equilibrate the instrument. […] The carboxyl-dextran surface was activated for 7 min with 0.05 M NHS and 0.2 M EDC, followed by an injection of the proteins in 10 mM MES pH 6.4 at a concentration of 30–50 µg mL^−1. […] This was followed by a deactivation of the residual esters by injecting a solution of 0.5 M ethanolamine pH 8.0 for 7 min before engaging in ligand binding experiments. Reference surfaces were prepared accordingly, omitting the injection of protein over the activated reference surface.

[2] = target: T2, mTEAD4 (Mus musculus, UniProt Q62296); assay: SPR binding to immobilised mTEAD4; conditions: mTEAD4 amine-coupled on CM5, multi-cycle, steady-state fit 1:1 model, 10 mM HEPES 150 mM NaCl 0.05% Tween-20 pH 7.4, 0.3% DMSO, 20 °C, Fig. 1 values n = 1 replicate
T2 construct: Mouse TEAD4(210–427) cDNA fused with a 6x His-tag and a 3C protease cleavage site; 6x His-tag; 3C protease cleavage site; made in house; host or cells: E. coli BL21 DE3 RIL(K+)
Method: as §1

[3] = Circular dichroism, calculated helicity; format: physicochemical; conditions: 10 mM sodium phosphate pH 7.4, 75 to 10 µM peptide, CDNN software PEPFIT mode, unbound peptide
Method: The spectra were obtained using a Jasco J-715 and a cuvette 0.1 mm. Represented CD spectra are an average of five measurements done between λ = 190 and 300 nm with a continuous scan mode, 50 nm min^−1 scan speed and data point every 1 nm. The α-helicity was calculated using CDNN software using the PEPFIT mode[42].

[4] = target: T2, mTEAD4; assay: Competition fluorescence polarization with mTEAD4 (alanine scan); format: binding; conditions: Ac-peptide vs FITC-labelled tracer peptide 10 nM, mTEAD4 400 nM, 1 h
Method: Competition FP: N-terminally acetylated peptides were diluted 1:1 in a 384-well plate (5 μL, 75 μM−9 pM). Ten microlitres of a mixture (1:1) of mTEAD4 and FITC-labelled peptide was added (final concentrations: acetylated peptides = 50 μM−6 pM; mTEAD4 protein = 400 nM; FITC-labelled tracer peptide = 10 nM). After 1 h, FP was measured (λ(ex) = […]). IC50 was determined from the binding curve with GraphPad from Prism.

[5] = target: T3, hTEAD1 (Homo sapiens, UniProt P28347); assay: Direct fluorescence polarization with hTEAD1; format: binding; conditions: direct FP, fluorescent cofactor 10 nM titrated with hTEAD1, 1 h; triplicates; read-out: FP hTEAD1 Kd of FITC labelled cofactor
T3 construct: CDNA of hTEAD1(209–426) fused with an N-terminal GST tag; GST (N); 6x His-tag (N); 3C protease cleavage site (N); made in house; host or cells: Escherichia coli BL21 DE3 RIL(K+)
Method: Supplementary Figure 15│ Binding studies of hTEAD1 by fluorescence polarization. Dissociation constants were measured […]
The fluorescent cofactor (10 nM) are directly titrated with hTEAD1. After 1 hour of incubation, fluorescence polarization was measured, and a non-linear fitting was applied to the curves to determine the […]
In the competitive binding assay, first a complex with the fluorescent cofactor (10 nM) and hTEAD1 (100 nM) was formed and after 1 hour of incubation, the unlabelled peptide was titrated. After 1 hour of incubation, fluorescence polarization was measured, and a non-linear fitting was applied to the curves to determine the half maximal inhibitory concentration. (c) Competition assay […]
Mean ± SEM of triplicates were plotted for all data. Source data are provided as a Source Data file.
(1 picture or pasted object on this page, not shown here)

T1 sequence (P28347 209-426): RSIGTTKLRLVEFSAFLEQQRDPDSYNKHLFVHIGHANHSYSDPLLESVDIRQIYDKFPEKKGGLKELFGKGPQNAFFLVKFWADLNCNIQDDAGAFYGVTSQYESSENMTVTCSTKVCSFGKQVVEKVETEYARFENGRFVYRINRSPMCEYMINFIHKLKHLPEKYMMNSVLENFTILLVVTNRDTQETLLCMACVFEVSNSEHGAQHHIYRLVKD
T2 sequence (Q62296 210-427): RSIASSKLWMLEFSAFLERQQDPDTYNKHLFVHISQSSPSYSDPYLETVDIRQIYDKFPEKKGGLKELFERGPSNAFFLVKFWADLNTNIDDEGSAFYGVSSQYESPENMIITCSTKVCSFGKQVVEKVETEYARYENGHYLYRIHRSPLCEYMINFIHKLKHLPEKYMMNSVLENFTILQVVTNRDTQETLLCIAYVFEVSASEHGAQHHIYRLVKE
T3 sequence (P28347 209-426): as the sequence (P28347 209-426) above

| Molecule | Kd [1] [µM] | Kd [2] [µM] | Helicity (CD) [3] [%] | IC50 [4] [µM] | Kd [5] [µM] |
| --- | --- | --- | --- | --- | --- |
| CC(=O)N[C@@H](CO)C(=O)N[C@H](C(=O)N[C@@H](CC(=O)O)C(=O)N[C@@H](CC(=O)O)C(=O)N[C@@H](Cc1c[nH]cn1)C(=O)N[C@@H](Cc1ccccc1)C(=O)N[C@@H](C)C(=O)N[C@@H](CCCCN)C(=O)N[C@@H](C)C(=O)N[C@@H](CC(C)C)C(=O)NCC(N)=O)C(C)C [compound 5] (Ac-SVDDHFAKALG-NH2) | > 100 | > 100 | < 5 | – | – |
| CC[C@H](C)[C@@H]1NC(=O)[C@H](CCC(N)=O)NC(=O)[C@H](CC(C)C)NC(=O)[C@H](Cc2c[nH]c3ccccc23)NC(=O)[C@H]([C@@H](C)O)NC(=O)[C@H](CC(=O)O)NC(=O)CNC(=O)[C@H](C)NC(=O)[C@H](C)NC(=O)[C@H](CCCCN)NC(=O)[C@H](C)NC(=O)[C@H](Cc2ccccc2)NC(=O)[C@H](Cc2c[nH]cn2)NC(=O)[C@H](CC(=O)O)NC(=O)[C@@H](NC(=O)[C@@H](NC(=O)[C@H](CO)NC(C)=O)C(C)C)CCC(=O)NCCCC[C@@H](C(=O)N[C@@H](C)C(=O)N[C@@H](C)C(N)=O)NC1=O [compound 20] (Ac-SVEDHFAKAAGDTWLQIKAA-NH2; lactam 3-18) | > 100 | > 100 | – | > 100 | – |
| Ac-DPVVEEHFRRSLGKNYKEPEPAPNSVSITGSVDDHFAKALGDTWLQIKAAKDSA-NH2 (N-terminus and C-terminus assumed) [compound 1] | 1.4 | 2 | – | – | 0.017 ± 0.0025 |

Further lines, results first:

| Kd [1] [µM] | Kd [2] [µM] | Helicity (CD) [3] [%] | IC50 [4] [µM] | Kd [5] [µM] | Molecule |
| --- | --- | --- | --- | --- | --- |
| > 100 | > 100 | – | > 50 | – | CC[C@H](C)[C@@H]1NC(=O)[C@H](CCC(N)=O)NC(=O)[C@H](CC(C)C)NC(=O)[C@H](Cc2c[nH]c3ccccc23)NC(=O)[C@H]([C@@H](C)O)NC(=O)[C@H](CC(=O)O)NC(=O)CNC(=O)[C@H](CC(C)C)NC(=O)[C@H](C)NC(=O)[C@H](CCCCN)NC(=O)[C@H](C)NC(=O)[C@H](C)NC(=O)[C@H](Cc2c[nH]cn2)NC(=O)[C@H](CC(=O)O)NC(=O)[C@@H](NC(=O)[C@@H](NC(=O)[C@H](CO)NC(C)=O)C(C)C)CCC(=O)NCCCC[C@@H](C(=O)N[C@@H](C)C(=O)N[C@@H](C)C(N)=O)NC1=O [compound 18] (Ac-SVEDHAAKALGDTWLQIKAA-NH2; lactam 3-18) |
| > 100 | > 100 | – | > 100 | – | CC[C@H](C)[C@@H]1NC(=O)[C@H](CCC(N)=O)NC(=O)[C@H](CC(C)C)NC(=O)[C@H](Cc2c[nH]c3ccccc23)NC(=O)[C@H]([C@@H](C)O)NC(=O)[C@H](C)NC(=O)CNC(=O)[C@H](CC(C)C)NC(=O)[C@H](C)NC(=O)[C@H](CCCCN)NC(=O)[C@H](C)NC(=O)[C@H](Cc2ccccc2)NC(=O)[C@H](Cc2c[nH]cn2)NC(=O)[C@H](CC(=O)O)NC(=O)[C@@H](NC(=O)[C@@H](NC(=O)[C@H](CO)NC(C)=O)C(C)C)CCC(=O)NCCCC[C@@H](C(=O)N[C@@H](C)C(=O)N[C@@H](C)C(N)=O)NC1=O [compound 21] (Ac-SVEDHFAKALGATWLQIKAA-NH2; lactam 3-18) |

— paper PMC7591920, “A protein tertiary structure mimetic modulator of the Hippo signalling pathway” (Nature Communications, 2020)
